From publication PMC12024234, “Antioxidant, Anti-Inflammatory, and Oral Bioavailability of Novel Sulfonamide Derivatives of Gallic Acid” (Antioxidants, 2025)
Where “and” joins values, the source holds several entries; their conditions need not be identical. Identical values can stand only once.

Tests used:
[1] = DPPH assay on supernatant after CYP2D6 metabolism
Protocol: (§1) The antioxidant properties of the compounds under study were examined using the 2,2-Diphenyl-1-picrylhydrazyl (DPPH) assay, following a well-established protocol. A DPPH solution was prepared at a concentration of 0.1 mM in methanol. […] To ensure proper reaction, the mixtures were kept in the dark and incubated at room temperature for 30 min. After incubation, the absorbance of each sample was measured at 517 nm using a UV-VIS spectrophotometer. Gallic acid was used as the reference standard, and methanol served as the blank control.
To further assess the scavenging activity of 3,4,5-TMBS metabolites, an antioxidant assay was conducted after 3 and 4 h following the metabolism. After both 3 h and 4 h reaction periods, the enzyme was separated, and the resulting supernatant was utilized for the DPPH assay. Findings regarding the antioxidant activity of 3,4,5-TMBS, post-metabolism, at these time points, in comparison to GA and 3,4,5-THBS at the same concentration, are illustrated in Figure 9.

[2] = Ferric reducing antioxidant power (FRAP) assay; settings: compared to GA
Protocol: The FRAP assay was conducted following an adapted procedure based on the method described by Benzie (1996). The FRAP reagent was prepared fresh and warmed to 25 °C before use. The reagent was made by combining 2.5 mL of a 10 mM TPTZ solution in 40 mM hydrochloric acid, 2.5 mL of a 20 mM FeCl3·6H2O solution, and 25 mL of a 0.3 M sodium acetate buffer adjusted to pH 3.6. For the assay, 100 μL of each sample was mixed with 3 mL of the freshly prepared FRAP reagent and incubated for 4 min. After incubation, the absorbance was recorded at 593 nm using a UV-VIS spectrophotometer, with methanol serving as the blank. A standard calibration curve was generated using ascorbic acid solutions at concentrations of 100, 200, 400, 800, and 1000 μM (R^2 = 0.998). The FRAP values were calculated as μM of ascorbic acid equivalents based on the standard curve. The results presented are the mean of three independent experiments.

[3] = DPPH radical scavenging assay; settings: for DPPH radical scavenging activity (in words): across tested concentrations 1 to 1000 μM
Protocol: as §1
The ability of the compounds to scavenge free radicals was determined by observing the reduction of DPPH at 517 nm, with lower absorbance values indicating higher antioxidant activity. The half-maximal inhibitory concentration (IC50), defined as the concentration of the compound needed to neutralize 50% of the DPPH radicals, was calculated from the dose–response curve. All experiments were performed in triplicate, and the results are reported as the mean of three independent trials. This method is widely recognized for its reliability and reproducibility in evaluating the antioxidant potential of chemical compounds.

CYP2D6 [4] = target: T1, CYP2D6 (Homo sapiens, UniProt P10635); assay: Metabolism by cytochrome P450 2D6 (CypExpress), HPLC; format: in vitro ADME
T1 construct: purchased Sigma Aldrich C4982

CYP2D6 [5] = target: T1, CYP2D6; assay: as above; format: in vitro ADME; settings: 4 h
Protocol: The enzymatic activity of cytochrome P450 2D6 (CYP2D6) was evaluated following the CypExpress protocol (C4982, Sigma Aldrich, Darmstadt, Germany). The reaction buffer consisted of 5 mM glucose-6-phosphate (G6P), 2 mM nicotinamide adenine dinucleotide phosphate (NADP+), and 3,4,5-TMBS prepared in PBS at concentrations of 1000 and 1500 µM. Diltiazem was used as a positive control. The reaction was initiated by adding CYP2D6, and the mixture was vortexed for 5 min. The samples were then incubated at 37 °C with gentle shaking at 100 rpm for 4 h. The reaction was terminated by adding acetonitrile, followed by centrifugation at 800 rpm for 10 min. The supernatant was collected and analyzed using HPLC.

[6] = tested on: intracellular reactive oxygen species (ROS) levels in HIEC-6 cells; assay: DCFDA / H2DCFDA ROS assay in HIEC-6; format: cell-based, Human; settings: HIEC-6, 0.2–50 µM
Protocol: The antioxidant DCFDA assay was conducted in HIEC-6 according to the protocol provided by the manufacturer Abcam (ab11385) and as mentioned by. Cells were seeded at a cell density of 2.5 × 10^4 cells/well in a clear bottom black 96-well microplate and allowed to adhere overnight at 37 °C in a CO2 incubator. Cells were washed and incubated in 100 µL of the diluted staining DCFDA solution, prepared by diluting 20 mM DCFDA in PBS, for 45 min at 37 °C in the dark Then, the DCFDA solution was removed and GA, 3,4,5-THBS, or 3,4,5-TMBS was added to the cells at different concentrations, in addition to doxorubicin, used as a positive control. Unstained cells were designated as blank. Fluorescence was recorded at Ex/Em = 485/535 nm.
The antioxidant activity of GA, 3,4,5-THBS, and 3,4,5-TMBS was assessed in HIEC-6 cells using the fluorescent probe 2′,7′-dichlorodihydrofluorescein diacetate (H2DCFDA). This assay quantifies the oxidation of H2DCFDA to 2′,7′-dichlorofluorescein (DCF), which serves as a marker for intracellular reactive oxygen species (ROS) levels. Cells were exposed to compound concentrations ranging from 0.2 to 50 µM, and the resulting fluorescence intensities were compared to a control group treated with H2DCFDA alone.

[7] = target: Bovine Serum Albumin (BSA) (Bos taurus, UniProt P02769); assay: Protein denaturation assay; format: biochemical; settings: at 100 nM and higher concentrations (range 1–1000 nM)
Protocol: The anti-inflammatory potential of the compounds was evaluated using a protein denaturation assay, a well-established method to assess the capacity of test substances to inhibit protein denaturation, a key marker of inflammation. […] After heating, the samples were allowed to cool to room temperature, and the turbidity of the solutions, indicative of protein precipitation, was measured spectrophotometrically at 660 nm. A reduction in turbidity corresponds to the inhibition of protein denaturation, reflecting the anti-inflammatory activity of the tested compounds.

T1 sequence (P10635 whole entry): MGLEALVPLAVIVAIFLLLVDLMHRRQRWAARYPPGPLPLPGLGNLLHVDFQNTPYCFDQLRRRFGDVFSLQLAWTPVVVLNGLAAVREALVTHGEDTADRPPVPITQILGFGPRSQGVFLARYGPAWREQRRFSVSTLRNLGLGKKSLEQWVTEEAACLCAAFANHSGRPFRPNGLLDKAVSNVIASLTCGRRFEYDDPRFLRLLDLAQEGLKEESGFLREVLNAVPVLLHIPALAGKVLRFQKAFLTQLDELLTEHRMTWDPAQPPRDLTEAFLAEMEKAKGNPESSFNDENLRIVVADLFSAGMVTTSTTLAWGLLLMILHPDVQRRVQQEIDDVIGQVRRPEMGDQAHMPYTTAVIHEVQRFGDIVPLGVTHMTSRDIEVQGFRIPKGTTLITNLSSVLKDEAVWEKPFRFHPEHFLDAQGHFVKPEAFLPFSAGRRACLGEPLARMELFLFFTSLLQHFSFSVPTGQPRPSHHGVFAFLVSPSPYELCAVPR
Bovine Serum Albumin (BSA), sequence (P02769 25-607): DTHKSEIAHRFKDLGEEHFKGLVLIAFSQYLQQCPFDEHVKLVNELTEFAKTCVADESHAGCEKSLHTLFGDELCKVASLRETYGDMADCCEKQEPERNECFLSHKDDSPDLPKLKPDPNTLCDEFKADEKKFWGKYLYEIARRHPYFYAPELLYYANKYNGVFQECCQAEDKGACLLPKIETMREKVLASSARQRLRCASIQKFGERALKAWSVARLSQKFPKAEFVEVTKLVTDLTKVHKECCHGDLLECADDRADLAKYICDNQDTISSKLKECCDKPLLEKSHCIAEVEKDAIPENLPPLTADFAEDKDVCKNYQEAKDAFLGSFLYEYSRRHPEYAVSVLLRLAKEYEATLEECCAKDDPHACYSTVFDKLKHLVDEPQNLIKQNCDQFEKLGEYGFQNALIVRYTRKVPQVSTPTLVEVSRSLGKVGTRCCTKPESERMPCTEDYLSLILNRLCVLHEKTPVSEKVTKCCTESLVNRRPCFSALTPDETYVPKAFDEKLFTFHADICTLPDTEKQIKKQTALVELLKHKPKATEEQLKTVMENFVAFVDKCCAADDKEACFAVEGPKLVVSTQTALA

Structure (SMILES) | DPPH scavenging activity after CYP2D6 metabolism ([1]; 1000 µM, after four hours) | DPPH scavenging activity after CYP2D6 metabolism ([1]; 1000 µM, after three hours) | DPPH scavenging activity after CYP2D6 metabolism ([1]; 2000 µM, after three and four hours) | FRAP value (antioxidant capacity) [2] | DPPH radical scavenging activity (in words) [3] | DPPH radical scavenging activity (in words) ([3]; listed as TMBS) | Metabolism by CYP2D6 (concentration) (CYP2D6 [4]; 1000 µM, 1 h) | Metabolism by CYP2D6 (concentration) (CYP2D6 [4]; 1000 µM, 3 h) | Metabolism by CYP2D6 (concentration) (CYP2D6 [4]; 1500 µM, 1 h) | Metabolism by CYP2D6 (concentration) (CYP2D6 [4]; 1500 µM, 3 h) | Percentage metabolized by CYP2D6 (CYP2D6 [4]; 1500 µM, one-hour time point) | Metabolism by CYP2D6 (concentration) (CYP2D6 [5]; 1000 µM) | Metabolism by CYP2D6 (concentration) (CYP2D6 [5]; 1500 µM) | ROS levels (fluorescence intensity) relative to control [6] | Anti-inflammatory activity (inhibition of protein denaturation) compared to ibuprofen [7] | EC50 [3] | DPPH radical scavenging activity ([3]; at 1000 µM) | ROS scavenging activity ([3]; at 1000 µM (abstract))
COc1cc(S(N)(=O)=O)cc(OC)c1OC [3,4,5-TMBS, 3,4,5-trimethoxybenzenesulfonamide] | 45% | 35% | up to 61% | lower antioxidant activity compared to GA | negligible effects | minimal scavenging activity | 754 ± 35.5 µM | 860.62 ± 0.71 µM | 984 ± 161 µM | 1241 ± 12.2 µM | 65% and 65.5% | 833 ± 54.9 µM | 1248 ± 5.02 µM | potent antioxidant activity | significant increase in anti-inflammatory activity | – | – | –
NS(=O)(=O)c1cc(O)c(O)c(O)c1 [3,4,5-THBS, 3,4,5-trihydroxybenzenesulfonamide] | – | – | – | lower antioxidant activity compared to GA | – | – | – | – | – | – | – | – | – | potent antioxidant activity | – | ~27 µM | exceeding 90% | 93%
